Measurements published in US6399598B1, “Diheterocyclic metalloprotease inhibitors” (The Procter & Gamble Company, priority 1996, dated 2002).

Assays:
Format in all cases: in vivo
rheumatoid arthritis = assay: Treatment of a rheumatoid arthritis patient with oral tablets (Example A); settings: human female, three 15 mg tablets per day orally for 2 years
Description: A tablet composition for oral administration, according to the present invention, is made comprising:
A human subject weighing 60 kg (132 lbs), suffering from rheumatoid arthritis, is treated by a method of this invention. Specifically, for 2 years, a regimen of three tablets per day is administered orally to said subject.

osteoarthritis = assay: Treatment of an osteoarthritis patient with oral capsules (Example B); settings: human male, capsule with 70 mg daily for 5 years
Description: A capsule for oral administration, according to the present invention, is made comprising:
A human subject weighing 90 kg (198 lbs), suffering from osteoarthritis, is treated by a method of this invention. Specifically, for 5 years, a capsule containing 70 mg of Example 3 is administered daily to said subject.

chemical burns = assay: Topical composition in a patient with chemical burns (Example D); settings: 0.20% w/v topical composition at each dressing change (b.i.d.)
Excerpt: An topical composition for local administration, according to the present invention, is made comprising:
A patient suffering from chemical burns applies the composition at each dressing change (b.i.d.).

premetastatic tumor = assay: Injection beside a premetastatic tumor in a human subject (Example G); settings: 100 mg/ml suspension, approx. 2.0 ml injected beside the tumor twice daily, after 30 days
Description: A composition for parenteral administration is made comprising: The above ingredients are mixed, forming a suspension. Approximately 2.0 ml of the suspension is administered, via injection, to a human subject with a premetastatic tumor. The injection site juxtaposes the tumor. This dosage is repeated twice daily, for approximately 30 days.

COc1ccc(S(=O)(=O)N2CCSCCC2C(=O)NO)cc1 (centres unmarked) [Example 9, N-Hydroxy-4-[(4-methoxyphenyl)sulfonyl]-thiazepine-5-carboxamide]
inflammation at the end of the treatment period (rheumatoid arthritis): reduced inflammation
mobility and pain at the end of the treatment period (rheumatoid arthritis): improved mobility without concomitant pain

COc1ccc(S(=O)(=O)N2CN(Cc3ccccc3)C(=O)C(C)(C)C2C(=O)NO)cc1 (racemic) [Example 3, N-Hydroxy 1-Benzyl-5,5-dimethyl-3-[(4-methoxyphenyl)sulfonyl]-6-oxo-hexahydro-pyrimidine-4(R,S)-carboxamide]
erosion/fibrillation of the articular cartilage, examined via orthoscopy (osteoarthritis): no further advancement of erosion/fibrillation of the articular cartilage
scarring (chemical burns): Scarring is substantially diminished

COc1ccc(S(=O)(=O)N2CCN(C(C)C)C(=O)C[C@@H]2C(=O)NO)cc1 [Example 4, N-Hydroxy 1-(1-Methylethyl)-4-[(4-methoxyphenyl)sulfonylamino]-7-oxo-1,4-diazepine-5(R)-carboxamide]
symptoms of the disease (premetastatic tumor): symptoms of the disease subside
